Experimental data from patent US7056654B2, “Screening assay for inhibitors of human cytochrome P-450” (SmithKline Beecham Corporation, priority 1999, dated 2006).

Molecular target: T1, CYP2C8 (Homo sapiens, UniProt P10632)
T1 sequence (P10632 1-490): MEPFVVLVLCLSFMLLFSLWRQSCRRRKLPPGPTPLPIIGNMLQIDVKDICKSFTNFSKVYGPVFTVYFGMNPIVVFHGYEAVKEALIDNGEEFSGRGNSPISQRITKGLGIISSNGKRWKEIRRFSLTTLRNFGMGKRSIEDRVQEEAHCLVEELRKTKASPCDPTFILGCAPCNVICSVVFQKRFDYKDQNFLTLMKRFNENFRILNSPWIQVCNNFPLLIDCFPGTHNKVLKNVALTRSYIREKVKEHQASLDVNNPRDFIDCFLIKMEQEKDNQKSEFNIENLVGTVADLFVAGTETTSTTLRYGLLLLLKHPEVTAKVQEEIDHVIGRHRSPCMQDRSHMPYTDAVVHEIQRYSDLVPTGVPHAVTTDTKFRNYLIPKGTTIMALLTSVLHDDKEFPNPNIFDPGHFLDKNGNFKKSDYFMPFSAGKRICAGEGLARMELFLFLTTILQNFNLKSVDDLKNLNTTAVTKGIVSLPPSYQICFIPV
Conditions: pH 7.4
Description: Assay Methodology for CYP2C8
• 400 μM diethoxyfluorescein, (i.e. 0.155 mg/mL in acetonitrile)—store at approx. −20° C. in the dark • 2% (w/v) NaHCO3—store at approx. 4° C. • 50 mM potassium phosphate buffer, pH 7.4
Freshly prepared cofactor solution:—approx. the following per mL of 2% (w/v) NaHCO3 • 1.7 mg NADP, monosodium salt • 7.8 mg glucose-6-phosphate, monosodium salt • 6 Units glucose-6-phosphate dehydrogenase, Type VII from Bakers Yeast Method: • 1) Pre-warm the plate reader oven to 37° C. and pre-warm the lamp for at least 10 minutes. • 2) Mix 2.5 μL of 400 µM diethoxyfluorescein, 5 μL (50 μg) CYP2C8 microsomal protein and 212.5 μL buffer per incubate (giving 4 µM diethoxyfluorescein and 200 μg/mL protein final concentration). • 3) To each well of a 96-well plate add 220 µL of incubation mix and 5 μL of test compound solution (or 5 μL of appropriate solvent for control wells—methanol, DMSO or acetonitrile may be used). • 4) Pre-incubate the multi-well plate in the plate reader at 37° C. for 5 minutes. Pre-warm the cofactor solution at 37° C. for 5 minutes. • 5) Add 25 μL cofactor solution to each well and scan with an excitation wavelength of 485 nm and an emission wavelength of 530 nm with a gain of 80. Scan for 10 cycles at 1 minute intervals.

IC50: 3 µM
Structure (SMILES): O=c1c(O)c(-c2ccc(O)c(O)c2)oc2cc(O)cc(O)c12 [quercitin]
